From US20170368082A1, “FORMULATIONS OF BRINCIDOFOVIR” (priority 2016, published 2017)

Tests used:
[1] = pH stability of brincidofovir stock solutions (50 μg/mL, 50 mM phosphate pH 6.0-8.0, 20% methanol); format: physicochemical
Protocol: Brincidofovir sample stock solutions (50 μg/mL) were prepared in 50 mM phosphate buffer at pH 6.0-8.0 containing 20% methanol. The samples were aliquoted and stored at two temperatures (T=2-8° C. and T=40° C.), and monitored for pH and recovery of brincidofovir at multiple time points over the course of two weeks. Under both conditions, the samples maintained the pH level throughout the time course of the experiment.
The decrease may be related to the observed precipitation. Variation for pH 7.0 is observed for t>8 days. One impurity (RT=4.7 min) was detected that exceeded the set total peak area threshold that was applied for peak integration. The percent of the total peak area was below 0.4% for samples at pH 6 and 6.5, and below 0.1% for samples at higher pH.
For the samples at lower pH, a peak associated with the deamination product of brincidofovir, was observed, encompassing an area % of 1.91 at pH 6.0, and 0.58 at pH 6.5. The degradants peak is not observed at neutral pH and above.

[2] = Stability study I (with dextrose): accelerated stability study; format: physicochemical
Protocol: Testing of the chemical degradation was performed in an accelerated stability study setup applying heat as an accelerator/stressor. An Arrhenius analysis was carried out providing an API half-life and a degradation rate at lower temperatures. Physical stability was evaluated at the desired storage temperature (2-8° C.); a benchmark/reference condition was likewise included in the study. The setup of the study is specified below:
Accelerated stability study: 50° C., 60° C., 65° C., 70° C., 75° C.,
Accelerated stability study: initial, 2, 6, 9, 14 days,
appearance, pH, c(BCV) recovery (HPLC), purity (HPLC), and liquid particle counting (physical degradation and benchmark stability study),
The stability testing results (accelerated conditions), i.e., the changes of pH and trends of brincidofovir recovery over the course of the stability study are summarized in Table 8 and Table 9 for the formulations at 10 mg/mL and 15 mg/mL respectively.

[3] = Infusion vehicle (5% dextrose) compatibility; format: physicochemical; settings: ambient
Protocol: A brincidofovir formulation comprising 10 mg/mL brincidofovir, 200 mM sodium phosphate, and 69 mM dextrose (pH=8.0) was diluted with the testing infusion vehicle (5% dextrose solution) to yield c(BCV)=0.5 and 1.0 mg/mL solutions. The diluted solutions were stored at ambient conditions, and samples were collected at initially at the beginning of the experiment, and after 2 h, 8 h, and 24 h and evaluated for appearance, pH, and recovery of c(BCV) (via HPLC). […] Detailed results of the study are summarized below (Table 18).
The Formulation 3a was diluted with the infusion vehicle (5% dextrose) solution to yield c(BCV)=0.5 mg/mL and 1.0 mg/mL solutions. The appearance, pH, and brincidofovir recovery (determined via HPLC) were evaluated at the time of preparing the test solution (to), and after 2 h (t2h), 8 h (t8h), and 24 h (t24h)

[4] = IV BCV single ascending dose study in healthy subjects: safety; format: in vivo, human
Protocol: Plasma PK samples were collected over 7 days and assayed by HPLC-MS. Plasma BCV PK parameters were determined by non-compartmental analysis and dose proportionality was assessed. Safety assessments were collected over 14 days.

[5] = c(BCV) 0.5 mg/mL in 5% dextrose, 0 h
[6] = c(BCV) 0.5 mg/mL in 5% dextrose, 2 h
[7] = c(BCV) 0.5 mg/mL in 5% dextrose, 8 h
[8] = c(BCV) 0.5 mg/mL in 5% dextrose, 24 h
[9] = c(BCV) 1.0 mg/mL in 5% dextrose, 0 h
[10] = c(BCV) 1.0 mg/mL in 5% dextrose, 2 h
[11] = c(BCV) 1.0 mg/mL in 5% dextrose, 8 h
[12] = c(BCV) 1.0 mg/mL in 5% dextrose, 24 h
[13] = Cohort 1, BCV 10 mg 2 h infusion, n = 6
[14] = Cohort 2, BCV 25 mg 2 h infusion, n = 6
[15] = Cohort 3, BCV 50 mg 2 h infusion, n = 9
[16] = Cohort 4, BCV 50 mg 4 h infusion, n = 9

For `CCCCCCCCCCCCCCCCOCCCOP(=O)(O)CO[C@H](CO)Cn1ccc(N)nc1=O` [Brincidofovir], the “Impurity (RT=4.7 min), percent of total peak area” value ([1]; 2-8 °C, higher pH) was “below 0.1%”, the “Time at which precipitation was observed” value ([1]; 2-8 °C, pH 6.0) was 2 days and the “Impurity (RT=4.7 min), percent of total peak area” value ([1]; 2-8 °C, pH 6 and 6.5) was “below 0.4%”. For the same compound, the “Time at which precipitation was observed” value ([1]; 2-8 °C, pH 6.5) was 2 days, the “Time at which precipitation was observed” value ([1]; 2-8 °C, pH 7.0) was 4 days and the Appearance ([1]; 2-8 °C, pH 7.5 and pH 8.0, two weeks) was “no observable change in appearance”. The Appearance ([1]; 40 °C, any pH) was “no physical change in appearance”, the “Deamination product peak area %” value ([1]; 40 °C, pH 6.0) was 1.91% and the “Deamination product peak area %” value ([1]; 40 °C, pH 6.5) was 0.58%. For the same compound, the “Degradation of brincidofovir over two weeks” value ([2]; 50 °C) was 16%, the “Degradation of brincidofovir over two weeks” value ([2]; 75 °C) was 22% and the Impurities ([2]; 75 °C station, both starting concentrations) was “up to 16%”. The Appearance [3, 5] was “Clear, colorless”, the “Measured pH” value [3, 5] was 8.2 and the “Observed c(BCV)” value [3, 5] was 0.51 mg/mL. The Appearance [3, 6] was “Clear, colorless”, the “Measured pH” value [3, 6] was 8.3 and the “Observed c(BCV)” value [3, 6] was 0.51 mg/mL. The Appearance [3, 7] was “Clear, colorless”, the “Measured pH” value [3, 7] was 8.2 and the “Observed c(BCV)” value [3, 7] was 0.51 mg/mL. The Appearance [3, 8] was “Clear, colorless”, the “Measured pH” value [3, 8] was 8.2 and the “Observed c(BCV)” value [3, 8] was 0.49 mg/mL. The Appearance [3, 9] was “Clear, colorless”, the “Measured pH” value [3, 9] was 8.2 and the “Observed c(BCV)” value [3, 9] was 1.0 mg/mL. For the same compound, the Appearance [3, 10] was “Clear, colorless”, the “Measured pH” value [3, 10] was 8.2 and the “Observed c(BCV)” value [3, 10] was 1.0 mg/mL. The Appearance [3, 11] was “Clear, colorless”, the “Measured pH” value [3, 11] was 8.2 and the “Observed c(BCV)” value [3, 11] was 1.0 mg/mL. For the same compound, the Appearance [3, 12] was “Clear, colorless”, the “Measured pH” value [3, 12] was 8.2 and the “Observed c(BCV)” value [3, 12] was 1.0 mg/mL. The “Drug-Related AEs: Decreased appetite (number of subjects)” value [4, 13] was 0, the “Drug-Related AEs: Diarrhea (number of subjects)” value [4, 13] was 0 and the “Drug-Related AEs: Elevated liver transaminases (number of subjects)” value [4, 13] was 0. For the same compound, the “Drug-Related AEs: Headache (number of subjects)” value [4, 13] was 0, the “Drug-Related AEs: Nausea (number of subjects)” value [4, 13] was 0 and the “Drug-Related AEs: Pain, phlebitis at infusion site (number of subjects)” value [4, 13] was 0. For the same compound, the “Grade 3 or 4 Drug-Related AEs: Decreased appetite (number of subjects)” value [4, 13] was 0, the “Grade 3 or 4 Drug-Related AEs: Diarrhea (number of subjects)” value (from here on “Grade 3 or 4 Drug-Related AEs: Diarrhea”) [4, 13] was 0 and the “Grade 3 or 4 Drug-Related AEs: Elevated liver transaminases (number of subjects)” value [4, 13] was 0. For the same compound, the “Grade 3 or 4 Drug-Related AEs: Headache (number of subjects)” value (“Grade 3 or 4 Drug-Related AEs: Headache” below) [4, 13] was 0, the “Grade 3 or 4 Drug-Related AEs: Nausea (number of subjects)” value (shortened to “Grade 3 or 4 Drug-Related AEs: Nausea”) [4, 13] was 0 and the “Grade 3 or 4 Drug-Related AEs: Pain, phlebitis at infusion site (number of subjects)” value (shortened to “Grade 3 or 4 Drug-Related AEs: Pain”) [4, 13] was 0. The “Drug-Related AEs: Decreased appetite (number of subjects)” value [4, 14] was 0, the “Drug-Related AEs: Diarrhea (number of subjects)” value [4, 14] was 0 and the “Drug-Related AEs: Elevated liver transaminases (number of subjects)” value [4, 14] was 0. For the same compound, the “Drug-Related AEs: Headache (number of subjects)” value [4, 14] was 0, the “Drug-Related AEs: Nausea (number of subjects)” value [4, 14] was 0 and the “Drug-Related AEs: Pain, phlebitis at infusion site (number of subjects)” value [4, 14] was 0. The “Grade 3 or 4 Drug-Related AEs: Decreased appetite (number of subjects)” value [4, 14] was 0, the “Grade 3 or 4 Drug-Related AEs: Diarrhea” value [4, 14] was 0 and the “Grade 3 or 4 Drug-Related AEs: Elevated liver transaminases (number of subjects)” value [4, 14] was 0. The “Grade 3 or 4 Drug-Related AEs: Headache” value [4, 14] was 0, the “Grade 3 or 4 Drug-Related AEs: Nausea” value [4, 14] was 0 and the “Grade 3 or 4 Drug-Related AEs: Pain” value [4, 14] was 0. The “Drug-Related AEs: Decreased appetite (number of subjects)” value [4, 15] was 0, the “Drug-Related AEs: Diarrhea (% of subjects)” value [4, 15] was “(11%)” and the “Drug-Related AEs: Diarrhea (number of subjects)” value [4, 15] was 1. The “Drug-Related AEs: Elevated liver transaminases (number of subjects)” value [4, 15] was 0, the “Drug-Related AEs: Headache (% of subjects)” value [4, 15] was “(22%)” and the “Drug-Related AEs: Headache (number of subjects)” value [4, 15] was 2. The “Drug-Related AEs: Nausea (number of subjects)” value [4, 15] was 0, the “Drug-Related AEs: Pain, phlebitis at infusion site (% of subjects)” value [4, 15] was “(11%)” and the “Drug-Related AEs: Pain, phlebitis at infusion site (number of subjects)” value [4, 15] was 1. For the same compound, the “Grade 3 or 4 Drug-Related AEs: Decreased appetite (number of subjects)” value [4, 15] was 0, the “Grade 3 or 4 Drug-Related AEs: Diarrhea” value [4, 15] was 0 and the “Grade 3 or 4 Drug-Related AEs: Elevated liver transaminases (number of subjects)” value [4, 15] was 0. The “Grade 3 or 4 Drug-Related AEs: Headache” value [4, 15] was 0, the “Grade 3 or 4 Drug-Related AEs: Nausea” value [4, 15] was 0 and the “Grade 3 or 4 Drug-Related AEs: Pain” value [4, 15] was 0. The “Drug-Related AEs: Decreased appetite (% of subjects)” value [4, 16] was “(11%)”, the “Drug-Related AEs: Decreased appetite (number of subjects)” value [4, 16] was 1 and the “Drug-Related AEs: Diarrhea (% of subjects)” value [4, 16] was “(33%)”. The “Drug-Related AEs: Diarrhea (number of subjects)” value [4, 16] was 3, the “Drug-Related AEs: Elevated liver transaminases (% of subjects)” value [4, 16] was “(11%)” and the “Drug-Related AEs: Elevated liver transaminases (number of subjects)” value [4, 16] was 1. The “Drug-Related AEs: Headache (% of subjects)” value [4, 16] was “(22%)”, the “Drug-Related AEs: Headache (number of subjects)” value [4, 16] was 2 and the “Drug-Related AEs: Nausea (% of subjects)” value [4, 16] was “(22%)”. The “Drug-Related AEs: Nausea (number of subjects)” value [4, 16] was 2, the “Drug-Related AEs: Pain, phlebitis at infusion site (number of subjects)” value [4, 16] was 0 and the “Grade 3 or 4 Drug-Related AEs: Decreased appetite (number of subjects)” value [4, 16] was 0. The “Grade 3 or 4 Drug-Related AEs: Diarrhea” value [4, 16] was 0, the “Grade 3 or 4 Drug-Related AEs: Elevated liver transaminases (% of subjects)” value [4, 16] was “(11%)” and the “Grade 3 or 4 Drug-Related AEs: Elevated liver transaminases (number of subjects)” value [4, 16] was 1. The “Grade 3 or 4 Drug-Related AEs: Headache” value [4, 16] was 0, the “Grade 3 or 4 Drug-Related AEs: Nausea” value [4, 16] was 0 and the “Grade 3 or 4 Drug-Related AEs: Pain” value [4, 16] was 0. For the same compound, the Adverse events ([4]; IV 10 mg and 25 mg) was “No drug related adverse events”, the Safety and tolerability ([4]; IV 10 mg and 25 mg) was “generally safe and well-tolerated” and the Bilirubin ([4]; any cohort) was “No Grade 2 or higher bilirubin”. For the same compound, the ALT elevations ([4]; cohort 4) was “transient grade 2-3 ALT elevations”, the Serious adverse events ([4]; human, in vivo) was “no serious adverse events occurred” and the Tolerability ([4]; single doses 10-50 mg, 2h IV infusion) was “well tolerated”. The ALT elevations ([4]; therapeutic IV exposures (cohorts 1 and 2)) was “no grade 2 or higher ALT elevations were observed”.
